The test system of data set [1] is human embryonic stem cell derived neural stem cells (NSCs). Kind of data set: Neural Stem Cell Proliferation Assay (neurogenesis assay, ATP levels by CellTiterGlo). The conditions noted are these: 96 h, compound concentration at which 150% activity of control (100%) is reached, NSC proliferation by ATP level after 4 days incubation, dose response 8 μM to 8 nM. It is filed as cell-based. Summed up: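 Human ESC-derived NSCs (dual SMAD inhibition) seeded 4 h before compounds, 11-point 2-fold series 8 μM–8 nM; 4 days at 37 °C, 5% CO2. ATP by CellTiterGlo luminescence as cell-number proxy, response as % of media control (0.25% DMSO); EC150 = concentration giving 150% of control.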
In general terms: Cellular ATP, detected with luciferase, serves as a proxy for viable cell number.

By melting point is commonly meant the temperature, or range, at which the solid turns liquid. For the compound `N#Cc1cc(-c2ccnc(Cl)c2)c2c(c1)cc1n2CCNC1=O` [Example 227, 6-(2-Chloropyridin-4-yl)-1-oxo-3,4-dihydro-2H-pyrazino[1,2-a]indole-8-carbonitrile], the melting point is 286 °C. The compound further had an EC (150% of control) in data set [1] of 0.55 µM.
On the same counts, the results for `N#Cc1cc(-c2ccc(CO)cc2)c2c(c1)cc1n2CCNC1=O` [Example 228, 6-[4-(Hydroxymethyl)-phenyl]-1-oxo-3,4-dihydro-2H-pyrazino[1,2-a]indole-8-carbonitrile] are 257.5 °C and 0.041 µM.
On the same counts, the results for `N#Cc1cc(-c2cccnc2)c2c(c1)cc1n2CCNC1=O` [Example 229, 1-Oxo-6-pyridin-3-yl-3,4-dihydro-2H-pyrazino[1,2-a]indole-8-carbonitrile] are 272.5 °C and 0.94 µM.
On the same counts, the results for `CC(C)(C)c1ccc(-c2cc(C#N)cc3cc4n(c23)CCNC4=O)cc1` [Example 230, 6-(4-tert-Butylphenyl)-1-oxo-3,4-dihydro-2H-pyrazino[1,2-a]indole-8-carbonitrile] are 300 °C and 0.14 µM.
Take `Cc1cc(-c2cc(C#N)cc3cc4n(c23)CCNC4=O)ccc1F` [Example 231, 6-(4-Fluoro-3-methylphenyl)-1-oxo-3,4-dihydro-2H-pyrazino[1,2-a]indole-8-carbonitrile]: the melting point came to 290 °C. In data set [1], this compound returned an EC (150% of control) of 0.058 µM.
The corresponding values for `N#Cc1cc(-c2ccc([N+](=O)[O-])cc2)c2c(c1)cc1n2CCNC1=O` [Example 232, 6-(4-Nitrophenyl)-1-oxo-3,4-dihydro-2H-pyrazino[1,2-a]indole-8-carbonitrile] are 369.5 °C and 0.02 µM.
In the case of `Cc1ccc(-c2cc(C#N)cc3cc4n(c23)CCNC4=O)cc1F` [Example 233, 6-(3-Fluoro-4-methylphenyl)-1-oxo-3,4-dihydro-2H-pyrazino[1,2-a]indole-8-carbonitrile], the melting point was found to be 278.5 °C. This compound came in with an EC (150% of control) in data set [1] of 0.052 µM.
In turn, `N#Cc1cc(-c2ccc([N+](=O)[O-])cc2)c2c(c1)cc1n2CCCNC1=O` [Example 234, 7-(4-Nitrophenyl)-1-oxo-2,3,4,5-tetrahydro-[1,4]diazepino[1,2-a]indole-9-carbonitrile] gave a melting point of 193.5 °C. In data set [1], this compound came in with an EC (150% of control) of 0.21 µM.
The corresponding values for `Cc1cc(-c2cc(C#N)cc3cc4n(c23)CCCNC4=O)ccc1F` [Example 235, 7-(4-Fluoro-3-methylphenyl)-1-oxo-2,3,4,5-tetrahydro-[1,4]diazepino[1,2-a]indole-9-carbonitrile] are 223.5 °C and 0.77 µM.
The corresponding values for `N#Cc1cc(-c2ccc(Cl)cc2Cl)c2c(c1)cc1n2CCCNC1=O` [Example 236, 7-(2,4-Dichlorophenyl)-1-oxo-2,3,4,5-tetrahydro-[1,4]diazepino[1,2-a]indole-9-carbonitrile] are 253 °C and 0.13 µM.
The corresponding values for `N#Cc1ccc(-c2cc(C#N)cc3cc4n(c23)CCCNC4=O)cc1` [Example 237, 7-(4-Cyanophenyl)-1-oxo-2,3,4,5-tetrahydro-[1,4]diazepino[1,2-a]indole-9-carbonitrile] are 257 °C and 0.22 µM.
In turn, `N#Cc1cc(-c2cc(F)cc(F)c2)c2c(c1)cc1n2CCCNC1=O` [Example 238, 7-(3,5-Difluorophenyl)-1-oxo-2,3,4,5-tetrahydro-[1,4]diazepino[1,2-a]indole-9-carbonitrile] gave a melting point of 211 °C. In addition, in data set [1], the EC (150% of control) stood at 1 µM.
Compound `N#Cc1cc(-c2cccc(F)c2)c2c(c1)cc1n2CCCNC1=O` [Example 239, 7-(3-Fluorophenyl)-1-oxo-2,3,4,5-tetrahydro-[1,4]diazepino[1,2-a]indole-9-carbonitrile] gave a melting point of 210.5 °C. Also, the EC (150% of control) in data set [1] worked out at 0.61 µM.
The corresponding values for `Cc1c2n(c3c(-c4cc(F)c(F)c(F)c4)cc(C#N)cc13)CCNC2=O` [Example 240, 10-Methyl-1-oxo-6-(3,4,5-trifluorophenyl)-3,4-dihydro-2H-pyrazino[1,2-a]indole-8-carbonitrile] are 253 °C and 0.11 µM.
On the same counts, the results for `Cc1c2n(c3c(-c4ccccc4)cc(C#N)cc13)CCNC2=O` [Example 241, 10-Methyl-1-oxo-6-phenyl-3,4-dihydro-2H-pyrazino[1,2-a]indole-8-carbonitrile] are 253 °C and 0.062 µM.
`Cc1c2n(c3c(-c4ccc(N)nc4)cc(C#N)cc13)CCNC2=O` [Example 242, 6-(6-Aminopyridin-3-yl)-10-methyl-1-oxo-3,4-dihydro-2H-pyrazino[1,2-a]indole-8-carbonitrile] had a melting point of 332 °C. The EC (150% of control) in data set [1] was 0.68 µM.
`Cc1c2n(c3c(-c4ccncc4)cc(C#N)cc13)CCNC2=O` [Example 243, 10-Methyl-1-oxo-6-pyridin-4-yl-3,4-dihydro-2H-pyrazino[1,2-a]indole-8-carbonitrile] registered a melting point of 307 °C. The same compound registered an EC (150% of control) in data set [1] of 0.09 µM.
With `Cc1c2n(c3c(-c4cc(F)c(F)c(F)c4)cc(C#N)cc13)CCCNC2=O` [Example 244, 11-Methyl-1-oxo-7-(3,4,5-trifluorophenyl)-2,3,4,5-tetrahydro-[1,4]diazepino[1,2-a]indole-9-carbonitrile], the melting point stood at 306 °C. For the same compound, the EC (150% of control) in data set [1] stood at 0.47 µM.
Consider `Cc1c2n(c3c(-c4ccccc4)cc(C#N)cc13)CCCNC2=O` [Example 245, 11-Methyl-1-oxo-7-phenyl-2,3,4,5-tetrahydro-[1,4]diazepino[1,2-a]indole-9-carbonitrile], for which the melting point is 258 °C. This compound had an EC (150% of control) in data set [1] of 0.095 µM.
The corresponding values for `Cc1c2n(c3c(-c4ccc(F)c(F)c4F)cc(C#N)cc13)CCNC2=O` [Example 246, 10-Methyl-1-oxo-6-(2,3,4-trifluorophenyl)-3,4-dihydro-2H-pyrazino[1,2-a]indole-8-carbonitrile] are 238 °C and 0.084 µM.
On the same counts, the results for `COc1ccc(-c2cc(C#N)cc3c(C)c4n(c23)CCNC4=O)cc1` [Example 247, 6-(4-Methoxyphenyl)-10-methyl-1-oxo-3,4-dihydro-2H-pyrazino[1,2-a]indole-8-carbonitrile] are 285 °C and 0.03 µM.
On the same counts, the results for `N#Cc1cc(-c2cc(F)c(F)c(F)c2)c2c(c1)cc1n2CCCNC1=O` [Example 248, 1-Oxo-7-(3,4,5-trifluorophenyl)-2,3,4,5-tetrahydro-[1,4]diazepino[1,2-a]indole-9-carbonitrile] are 248.5 °C and 0.62 µM.
In turn, `N#Cc1cc(-c2ccc(Cl)c(Cl)c2)c2c(c1)cc1n2CCCNC1=O` [Example 249, 7-(3,4-Dichlorophenyl)-1-oxo-2,3,4,5-tetrahydro-[1,4]diazepino[1,2-a]indole-9-carbonitrile] gave a melting point of 217.5 °C. In addition, in data set [1], the EC (150% of control) was determined as 0.31 µM.
Turning to `Cc1c2n(c3c(-c4ccncc4)cc(C#N)cc13)CCCNC2=O` [Example 250, 11-Methyl-1-oxo-7-pyridin-4-yl-2,3,4,5-tetrahydro-[1,4]diazepino[1,2-a]indole-9-carbonitrile], the melting point was determined as 285 °C. The compound further showed an EC (150% of control) in data set [1] of 0.15 µM.
The corresponding values for `Cc1c2n(c3c(-c4ccc(N)nc4)cc(C#N)cc13)CCCNC2=O` [Example 251, 7-(6-Aminopyridin-3-yl)-11-methyl-1-oxo-2,3,4,5-tetrahydro-[1,4]diazepino[1,2-a]indole-9-carbonitrile] are 306 °C and 0.29 µM.
The corresponding values for `N#Cc1cc(-c2ccc(Cl)c(F)c2)c2c(c1)cc1n2CCCNC1=O` [Example 252, 7-(4-Chloro-3-fluorophenyl)-1-oxo-2,3,4,5-tetrahydro-[1,4]diazepino[1,2-a]indole-9-carbonitrile] are 221.5 °C and 1.38 µM.
The corresponding values for `Cc1ccc(-c2cc(C#N)cc3cc4n(c23)CCCNC4=O)cc1F` [Example 253, 7-(3-Fluoro-4-methylphenyl)-1-oxo-2,3,4,5-tetrahydro-[1,4]diazepino[1,2-a]indole-9-carbonitrile] are 250.5 °C and 0.65 µM.
`N#Cc1cc(-c2ccc(OC(F)(F)F)cc2)c2c(c1)cc1n2CCCNC1=O` [Example 255, 1-Oxo-7-[4-(trifluoromethoxy)phenyl]-2,3,4,5-tetrahydro-[1,4]diazepino[1,2-a]indole-9-carbonitrile] had a melting point of 230.5 °C. This compound registered an EC (150% of control) in data set [1] of 0.3 µM.
`CS(=O)(=O)c1ccc(-c2cc(C#N)cc3cc4n(c23)CCCNC4=O)cc1` [Example 256, 7-(4-Methylsulfonylphenyl)-1-oxo-2,3,4,5-tetrahydro-[1,4]diazepino[1,2-a]indole-9-carbonitrile] came in with a melting point of 305.5 °C. In data set [1], the EC (150% of control) was found to be 1.42 µM.
`N#Cc1cc(-c2ccnc(Cl)c2)c2c(c1)cc1n2CCCNC1=O` [Example 257, 7-(2-Chloropyridin-4-yl)-1-oxo-2,3,4,5-tetrahydro-[1,4]diazepino[1,2-a]indole-9-carbonitrile]: the melting point was 286.5 °C. Also, the EC (150% of control) in data set [1] turned out to be 0.54 µM.
In the case of `Cc1ccc(-c2cc(C#N)cc3c(C)c4n(c23)CCNC4=O)cc1` [Example 258, 10-Methyl-6-(4-methylphenyl)-1-oxo-3,4-dihydro-2H-pyrazino[1,2-a]indole-8-carbonitrile], the melting point is 277 °C. For the same compound, the EC (150% of control) in data set [1] was 0.035 µM.

For the origin of these results see patent US9284321B2, “Piperazino[1,2-a]indol-1-ones and [1,4]diazepino[1,2-a]indol-1-one” (Hoffmann-La Roche Inc., priority 2012, dated 2016).
